Assay results: ChEMBL document CHEMBL4359811, “Development of Potent and Selective Pyrazolopyrimidine IRAK4 Inhibitors” (J Med Chem, 2019); call rule not given here
In brackets after ≈: the same amount, converted by molar mass.

What was measured:
[1] = AUC (infinity) in mouse at 100 mg/kg, po administered as suspension in MCT; type: ADME, organism-based; design: dose 100 mg/kg, time infinity, route oral; settings: in vivo
[2] = Cmax in mouse at 30 mg/kg, po; type: ADME, organism-based; design: dose 30 mg/kg, route oral; settings: in vivo
[3] = Cmax in mouse at 300 mg/kg, po administered as suspension in MCT; type: ADME, organism-based; design: dose 300 mg/kg, route oral; settings: in vivo
[4] = AUC (infinity) in mouse at 5 mg/kg, po; type: ADME, organism-based; design: dose 5 mg/kg, route oral, time infinity; settings: in vivo
[5] = Protein binding in monkey plasma at 5 uM incubated for 4 hrs by LC-MS/MS analysis; type: ADME, cell-free, Macaca mulatta; settings: rhesus monkey, read-out: PPB (converted)
[6] = Cmax in mouse at 5 mg/kg, po; type: ADME, organism-based; design: dose 5 mg/kg, route oral; settings: in vivo, read-out: Cmax
[7] = Cmax in mouse at 10 mg/kg, po; type: ADME, organism-based; design: dose 10 mg/kg, route oral; settings: in vivo
[8] = AUC (infinity) in mouse at 300 mg/kg, po administered as suspension in MCT; type: ADME, organism-based; design: dose 300 mg/kg, route oral, time infinity; settings: in vivo
[9] = Apparent permeability from apical to basolateral side in MDCK cells at 10 uM incubated for 180 mins and measured up to 180 min by LC-MS/MS analysis; type: ADME, cell-based, Canis lupus familiaris; settings: dog
Mus musculus [10] = experiment: In vivo inhibition of IRAK4 in CpG ODN 1826 induced C57BL/6 mouse assessed as blockade of TLR9 signalling by measuring IL-6 levels at 100 mg/kg, po treated 1 hr prior to CpG ODN 1826 stimulation and measured after 1 hr by MSD assay; type: functional; design: scale not given: the % may be the effect or the level left
Mus musculus [11] = experiment: In vivo inhibition of IRAK4 in CpG ODN 1826 induced C57BL/6 mouse assessed as blockade of TLR9 signalling by measuring IL-6 levels at 3 mg/kg, po treated 1 hr prior to CpG ODN 1826 stimulation and measured after 1 hr by MSD assay; type: functional; design: scale not given: the % may be the effect or the level left
[12] = Cmax in dog at 1 mg/kg, po; type: ADME, organism-based, Canis lupus familiaris; design: dose 1 mg/kg, route oral; settings: in vivo
[13] = Volume of distribution at steady state in rat at 1 mg/kg, iv; type: ADME, organism-based; settings: in vivo, read-out: Vdss
[14] = Cmax in mouse at 300 mg/kg, po administered as suspension in 10% captisol; type: ADME, organism-based; design: dose 300 mg/kg, route oral; settings: in vivo
[15] = Kinetic aqueous solubility of the compound in PBS buffer at pH 7.4 incubated for 24 hrs under shaking condition by LC-CLND assay; type: physicochemical; settings: PBS buffer, pH 7.4; read-out: Kinetic_solubility
[16] = AUC (infinity) in mouse at 10 mg/kg, po; type: ADME, organism-based; design: dose 10 mg/kg, route oral, time infinity; settings: in vivo
[17] = Cmax in mouse at 100 mg/kg, po administered as suspension in 10% captisol; type: ADME, organism-based; design: dose 100 mg/kg, route oral; settings: in vivo
[18] = Half-life in monkey at 1 mg/kg, po; type: ADME, organism-based, Macaca mulatta; settings: rhesus monkey, in vivo
Mus musculus [19] = experiment: In vivo inhibition of IRAK4 in CpG ODN 1826 induced C57BL/6 mouse assessed as blockade of TLR9 signalling by measuring IL-6 levels at 10 mg/kg, po treated 1 hr prior to CpG ODN 1826 stimulation and measured after 1 hr by MSD assay; type: functional; design: scale not given: the % may be the effect or the level left
[20] = Oral bioavailability in mouse at 100 mg/kg administered as suspension in MCT; type: ADME, organism-based; settings: in vivo
[21] = AUC (infinity) in monkey at 1 mg/kg, po; type: ADME, organism-based, Macaca mulatta; design: dose 1 mg/kg, time infinity, route oral; settings: rhesus monkey, in vivo
[22] = Half-life in mouse at 5 mg/kg, po; type: ADME, organism-based; settings: in vivo
[23] = Half-life in rat at 1 mg/kg, po; type: ADME, organism-based; settings: in vivo
[24] = Plasma clearance in rat at 1 mg/kg, iv; type: ADME, organism-based
Mus musculus [25] = experiment: In vivo inhibition of IRAK4 in CpG ODN 1826 induced C57BL/6 mouse assessed as blockade of TLR9 signalling by measuring TNFalpha levels at 10 mg/kg, po treated 1 hr prior to CpG ODN 1826 stimulation and measured after 1 hr by MSD assay; type: functional; design: scale not given: the % may be the effect or the level left
[26] = Half-life in mouse at 10 mg/kg, po; type: ADME, organism-based; settings: in vivo
[27] = Protein binding in human plasma at 5 uM incubated for 4 hrs by LC-MS/MS analysis; type: ADME, cell-free; settings: read-out: PPB (converted)
[28] = Oral bioavailability in mouse at 300 mg/kg administered as suspension in MCT; type: ADME, organism-based; settings: in vivo
[29] = Cmax in monkey at 1 mg/kg, po; type: ADME, organism-based, Macaca mulatta; design: dose 1 mg/kg, route oral; settings: rhesus monkey, in vivo
[30] = Half-life in mouse at 300 mg/kg, po administered as suspension in MCT; type: ADME, organism-based; settings: in vivo
[31] = Cmax in rat at 1 mg/kg, po; type: ADME, organism-based; design: dose 1 mg/kg, route oral; settings: in vivo
Mus musculus [32] = experiment: In vivo inhibition of IRAK4 in CpG ODN 1826 induced C57BL/6 mouse assessed as blockade of TLR9 signalling by measuring TNFalpha levels at 1 mg/kg, po treated 1 hr prior to CpG ODN 1826 stimulation and measured after 1 hr by MSD assay; type: functional; design: scale not given: the % may be the effect or the level left
[33] = AUC (infinity) in rat at 1 mg/kg, po; type: ADME, organism-based; design: dose 1 mg/kg, time infinity, route oral; settings: in vivo
[34] = Drug concentration in CpG ODN 1826 induced C57BL/6 mouse plasma at 1 to 100 mg/kg, po treated 1 hr prior to CpG ODN 1826 stimulation and measured after 1 hr by MSD assay; type: ADME, organism-based; settings: in vivo
[35] = Plasma clearance in mouse at 1 mg/kg, iv; type: ADME, organism-based
[36] = Plasma clearance in monkey at 1 mg/kg, iv; type: ADME, organism-based, Macaca mulatta; settings: rhesus monkey
[37] = Cmax in mouse at 100 mg/kg, po administered as suspension in MCT; type: ADME, organism-based; design: dose 100 mg/kg, route oral; settings: in vivo
[38] = Half-life in mouse at 30 mg/kg, po; type: ADME, organism-based; settings: in vivo
[39] = Oral bioavailability in dog at 1 mg/kg; type: ADME, organism-based, Canis lupus familiaris; settings: in vivo
[40] = AUC (infinity) in mouse at 300 mg/kg, po administered as suspension in 10% captisol; type: ADME, organism-based; design: dose 300 mg/kg, route oral, time infinity; settings: in vivo
[41] = Oral bioavailability in mouse at 300 mg/kg administered as suspension in 10% captisol; type: ADME, organism-based; settings: in vivo
[42] = Volume of distribution at steady state in mouse at 1 mg/kg, iv; type: ADME, organism-based; settings: in vivo, read-out: Vdss
Mus musculus [43] = experiment: In vivo inhibition of IRAK4 in CpG ODN 1826 induced C57BL/6 mouse assessed as blockade of TLR9 signalling by measuring TNFalpha levels at 100 mg/kg, po treated 1 hr prior to CpG ODN 1826 stimulation and measured after 1 hr by MSD assay; type: functional; design: scale not given: the % may be the effect or the level left
Mus musculus [44] = experiment: In vivo inhibition of IRAK4 in CpG ODN 1826 induced C57BL/6 mouse assessed as blockade of TLR9 signalling by measuring IL-6 levels at 30 mg/kg, po treated 1 hr prior to CpG ODN 1826 stimulation and measured after 1 hr by MSD assay; type: functional; design: scale not given: the % may be the effect or the level left
[45] = Oral bioavailability in monkey at 1 mg/kg; type: ADME, organism-based, Macaca mulatta; settings: rhesus monkey, in vivo
[46] = Oral bioavailability in rat at 1 mg/kg; type: ADME, organism-based; settings: in vivo
[47] = AUC (infinity) in dog at 1 mg/kg, po; type: ADME, organism-based, Canis lupus familiaris; design: dose 1 mg/kg, time infinity, route oral; settings: in vivo
[48] = Plasma clearance in dog at 0.3 mg/kg, iv; type: ADME, organism-based, Canis lupus familiaris
[49] = Half-life in mouse at 100 mg/kg, po administered as suspension in 10% captisol; type: ADME, organism-based; settings: in vivo
[50] = AUC (infinity) in mouse at 100 mg/kg, po administered as suspension in 10% captisol; type: ADME, organism-based; design: dose 100 mg/kg, route oral, time infinity; settings: in vivo

In the case of `C[C@]1(CO)Cc2cc(NC(=O)c3cnn4cccnc34)c(N3CCOCC3)cc2O1`, the AUC(0-inf) [1] is reported as 15.1 µM·h, the Cmax [2] is reported as 7.2 µM and the Cmax [3] is reported as 10 µM. The AUC(0-inf) [4] was 2.3 µM·h, the fraction unbound at 4 h, 5 µM [5] was 0.49 and the Cmax [6] was 2.1 µM. The Cmax [7] was 5.4 µM, the AUC(0-inf) [8] was 63 µM·h and the Papp A→B at 3 h, 10 µM [9] was 15 ×10⁻⁶ cm/s. For the same molecule, the Activity (Mus musculus [10]) was -91%, the Activity (Mus musculus [11]) was -27% and the Cmax [12] was 0.2 µM. The Vd [13] was 2.3 L/kg, the Cmax [14] was 14 µM and the solubility kinetic at 24 h [15] was 10 µM (≈ 4.09 µg/mL). The AUC(0-inf) [16] was 10 µM·h, the Cmax [17] was 9.7 µM and the half-life [18] was 3 h. For the same molecule, the Activity (Mus musculus [19]) was -69%, the bioavailability [20] was 19% and the AUC(0-inf) [21] was 3.3 µM·h. For the same molecule, the half-life [22] was 0.5 h, the half-life [23] was 3.8 h and the clearance [24] was 6.6 mL/min/kg. For the same molecule, the Activity (Mus musculus [25]) was -39%, the half-life [26] was 1.3 h and the fraction unbound at 4 h, 5 µM [27] was 0.44. It also gave a bioavailability [28] of 22%, a Cmax [29] of 0.3 µM and a half-life [30] of 23.2 h. The Cmax [31] was 0.4 µM, the Activity (Mus musculus [32]) was 3% and the AUC(0-inf) [33] was 3 µM·h. For the same molecule, the Drug uptake [34] was “Active”, the clearance [35] was 54 mL/min/kg and the clearance [36] was 11 mL/min/kg. It also gave a Cmax [37] of 4.8 µM, a half-life [38] of 1.3 h and a bioavailability [39] of 30%. It also gave an AUC(0-inf) [40] of 340 µM·h, a bioavailability [41] of 33% and a Vd [42] of 1.1 L/kg. It also gave an Activity (Mus musculus [43]) of -89%, an Activity (Mus musculus [44]) of -78% and a bioavailability [45] of 85%. It also gave a bioavailability [46] of 42%, an AUC(0-inf) [47] of 1.4 µM·h and a clearance [48] of 9.3 mL/min/kg. For the same molecule, the half-life [49] was 3.3 h and the AUC(0-inf) [50] was 98 µM·h.
